Some results are limits rather than exact numbers.

Results on ten compounds are retold here after patent US12559496B2, “Imidazopyrimidines as modulators of IL-17” (Janssen Pharmaceutica NV, priority 2020, dated 2026).

Experiment [1] addresses IL-17A(FLAG-Tagged): IL-17RA(His-Tagged) (Homo sapiens, UniProt Q16552, K93Q). The experiment can be described thus: IL-17A(FLAG-Tagged): IL-17RA(His-Tagged) Binding Disruption Eu-HTRF Assay. The following applies: disruption of IL-17A/IL-17RA binding; simple average if tested more than once. Summed up:
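Compound (22-point 2-fold series) was preincubated 1 h at rt with FLAG-IL-17A, then His-IL-17RA, Eu-anti-FLAG and D2-anti-His were added in PBS/0.01% Triton X-100 with 200 mM KF for 2 h at rt. The ratio of 665 and 620 nm intensities versus concentration was fitted to one-site competition for IC50.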
(In general: In TR-FRET formats the signal depends on donor and acceptor labels being close together.)

The subject of experiment [2] is IL-17A-induced G-CSF production in human normal keratinocytes (NHK). In words: NHK Assay: IL-17A-induced G-CSF production in human normal keratinocytes. It counts as cell-based. The following applies: Homo sapiens, Keratinocyte, 24 h, IL-17A 5 ng/mL, 5% FBS, simple average if tested more than once. Summed up:
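Adult normal human keratinocytes treated 24 h at 37 °C with IL-17A (5 ng/mL final) pre-incubated 1 h at rt with titrated compound; 0.2% DMSO, 5% FBS. G-CSF in supernatant measured by HTRF against a standard curve to give IC50; viability checked by CellTiter-Glo.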

The conditions of experiment [3]: seven of nine patients with moderate-to-severe HS, open-label pilot-trial (Prussick et al. 2019); cited from earlier work.

Chain of UniProt Q16552 (Q16552 with tags, fused parts or gaps K93Q): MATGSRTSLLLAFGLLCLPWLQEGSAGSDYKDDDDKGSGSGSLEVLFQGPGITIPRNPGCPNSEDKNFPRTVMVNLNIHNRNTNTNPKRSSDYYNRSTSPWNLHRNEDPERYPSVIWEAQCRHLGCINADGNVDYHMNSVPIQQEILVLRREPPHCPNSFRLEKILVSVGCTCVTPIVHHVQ

`CC(C)n1nccc1C(=O)N[C@H](c1nc2nc([C@H](NC(=O)CCC(F)(F)F)C3CC3)ccn2c1F)C1CCC(F)(F)CC1` [Example 35, N—((S)-(7-((R)-Cyclopropyl(4,4,4-trifluorobutanamido)methyl)-3-fluoroimidazo[1,2-a]pyrimidin-2-yl)(4,4-difluorocyclohexyl)methyl)-1-isopropyl-1H-pyrazole-5-carboxamide]: the concentration for half-maximal inhibition (IC50) (commonly the concentration needed to halve the response being measured) came out at 0.81 µM in experiment [1] and 0.95 µM in experiment [2]. For `O=C(CCC(F)(F)F)N[C@@H](c1ccn2cc([C@@H](NC(=O)c3conc3C3CC3)C3CCC(F)(F)CC3)nc2n1)C1CC1` [Example 36, 3-Cyclopropyl-N—((S)-(7-((R)-cyclopropyl(4,4,4-trifluorobutanamido)methyl)imidazo[1,2-a]pyrimidin-2-yl)(4,4-difluorocyclohexyl)methyl)isoxazole-4-carboxamide] the same measures were 0.22 µM and 0.19 µM. On the same counts, the results for `O=C(CCC(F)(F)F)N[C@H](c1ccn2cc([C@@H](NC(=O)c3conc3C3CC3)C3CCC(F)(F)CC3)nc2n1)C1CC1` [Example 37, 3-Cyclopropyl-N—((S)-(7-((S)-cyclopropyl(4,4,4-trifluorobutanamido)methyl)imidazo[1,2-a]pyrimidin-2-yl)(4,4-difluorocyclohexyl)methyl)isoxazole-4-carboxamide] are 1.4 µM and over 20 µM.

Regarding `O=C(CCC(F)(F)F)N[C@@H](c1ccn2cc([C@@H](NC(=O)c3ccnc(CC(F)(F)F)c3)C3CCC(F)(F)CC3)nc2n1)C1CC1` [Example 48, N—((S)-(7-((R)-Cyclopropyl(4,4,4-trifluorobutanamido)methyl)imidazo[1,2-a]pyrimidin-2-yl)(4,4-difluorocyclohexyl)methyl)-2-(2,2,2-trifluoroethyl)isonicotinamide], the IC50 amounted to 0.16 µM in experiment [1] and 0.17 µM in experiment [2]. For `Cc1nonc1C(=O)N[C@H](c1cn2ccc([C@H](NC(=O)CC34CC(F)(C3)C4)C3CC3)nc2n1)C1CCC(F)(F)CC1` [Example 59, N—((S)-(7-((R)-Cyclopropyl(2-(3-fluorobicyclo[1.1.1]pentan-1-yl)acetamido)methyl)imidazo[1,2-a]pyrimidin-2-yl)(4,4-difluorocyclohexyl)methyl)-4-methyl-1,2,5-oxadiazole-3-carboxamide] the same measures were 0.39 µM and 0.99 µM. On the same counts, the results for `Cc1nonc1C(=O)N[C@H](c1cn2ccc([C@H](NC(=O)C[C@H](C)C(F)F)C3CC3)nc2n1)C1CCC(F)(F)CC1` [Example 60, N—((S)-(7-((R)-Cyclopropyl((S)-4,4-difluoro-3-methylbutanamido)methyl)imidazo[1,2-a]pyrimidin-2-yl)(4,4-difluorocyclohexyl)methyl)-4-methyl-1,2,5-oxadiazole-3-carboxamide] are 0.38 µM and 0.76 µM. On the same counts, the results for `Cc1nonc1C(=O)N[C@H](c1cn2ccc([C@H](NC(=O)C[C@H]3C[C@H](F)C3)C3CC3)nc2n1)C1CCC(F)(F)CC1` [Example 61, N—((S)-(7-((R)-Cyclopropyl(2-((1r,3S)-3-fluorocyclobutyl)acetamido)methyl)imidazo[1,2-a]pyrimidin-2-yl)(4,4-difluorocyclohexyl)methyl)-4-methyl-1,2,5-oxadiazole-3-carboxamide] are 0.46 µM and 2.3 µM. For the compound `O=C(CC1CC(F)(F)C1)N[C@@H](c1ccn2cc([C@@H](NC(=O)c3nonc3C3CC3)C3CCC(F)(F)CC3)nc2n1)C1CC1` [Example 62, 4-Cyclopropyl-N—((S)-(7-((R)-cyclopropyl(2-(3,3-difluorocyclobutyl)acetamido)methyl)imidazo[1,2-a]pyrimidin-2-yl)(4,4-difluorocyclohexyl)methyl)-1,2,5-oxadiazole-3-carboxamide], the IC50 turned out to be 0.091 µM in experiment [1] and 0.12 µM in experiment [2]. On the same counts, the results for `O=C(CC1CC(F)(F)C1)N[C@@H](c1ccn2cc([C@@H](NC(=O)c3nocc3CC(F)(F)F)C3CCC(F)(F)CC3)nc2n1)C1CC1` [Example 63, N—((S)-(7-((R)-Cyclopropyl(2-(3,3-difluorocyclobutyl)acetamido)methyl)imidazo[1,2-a]pyrimidin-2-yl)(4,4-difluorocyclohexyl)methyl)-4-(2,2,2-trifluoroethyl)isoxazole-3-carboxamide] are 0.22 µM and 0.64 µM. In the case of secukinumab, in experiment [3], the “patients achieving HiSCR” value is 78%.
